Tests used:
Format in all cases: cell-based
[1] = tested on: CFU-Mk (platelet precursors); experiment: Colony forming unit (CFU) assay, human bone marrow cells (Example 6); details: in the presence of substance P
Text: (§1) As stem cells differentiate in response to growth factors, they form a colony of cells with distinct morphologies that can be visualized using a microscope. This study examined the formation of three different progenitor cell populations, erythrocytes, platelets and granulocytes/macrophages.
(§2) Bone marrow aspirates were obtained from three healthy donors between 18 and 35 years of age following appropriate guidelines and protocols. Bone marrow mononuclear cells were isolated using a Ficoll-Hypaque density gradient, separating red blood cells from the others. Cells from each donor were processed independently and used for setting up individual experiments to assess the effects, if any, of donor variability.
Cells (1×10^5) were plated in duplicate onto 35 mm tissue culture plates for each condition tested and set up as described in Rameshwar et al. 1993, Blood. 81:2, 391-398. Erythroid and granulocyte/macrophage cultures were plated using methylcellulose and megakaryocyte cultures (platelet precursors) used a collagen-based support (StemCell Technologies, Vancouver, Canada, catalogue #04973). […] CP 99,994 (Pfizer) was used as a neurokinin-1 receptor antagonist and SR 48968 (Sanofi) was used as a neurokinin-2 receptor antagonist.
Cultures were set up with limited cytokines and growth factors which would promote differentiation of one progenitor per plate. […]

[2] = tested on: human bone marrow-derived hematopoietic cell populations; experiment: CFC differentiation and ATP proliferation assays, overall statements (Example 4)
Method: The compound was dissolved in 1 ml of Iscove's Modified Dulbecco's Medium (IMDM) and a serial dose response prepared in single log doses so that the final dose in culture ranged from 1 nM to 1×10^−16 M. All working dilutions were performed in IMDM.
Starting with human bone marrow aspirate, the mononuclear cell (MNC) fraction was separated from the whole bone marrow using Ficoll-Paque density gradient centrifugation. […] The cell concentration was adjusted so that the final cell concentration in culture was 10,000 cells/well.
Human bone marrow MNC was dissolved in IMDM and cultured at a concentration of 10,000 cell/well in a CAMEO™-96 Master Mix (HemoGenix, Inc., Colorado Springs, Colo.). […]
Prior to processing all 96-well plates, the total colony counts/well were manually enumerated by microscopy. The mean, standard deviation and percent coefficient of variation was calculated for all groups, transposed and plotted. The intracellular ATP (iATP) concentration was measured after manual enumeration. The output of the luminometer is non-standardized Relative Luminescence Units (RLU). […] This allowed the RLU values to be automatically calculated into standardized ATP (μM) units. For both the RLU and ATP values derived from each well, the luminometer software calculated the mean, standard deviation and percent coefficient of variation.

[3] = tested on: seven human-derived hematopoietic cell populations; experiment: CFC assay, three donors, overall statements (Example 5); details: highest doses (1 nM)
Method: Compound was dissolved in 1 ml of Iscove's Modified Dulbecco's Medium (IMDM) and a serial dose response was prepared in single log doses so that the final dose in culture ranged from 1 nanoMolar (nM) to 1×10^−16 M. All working dilutions were performed in IMDM. Cell cultures from each donor were started at different times and a fresh solution of HOMSPERA® was prepared for each individual experiment.
Starting with human bone marrow aspirate, the mononuclear cell (MNC) fraction from each aspirate was separated from whole bone marrow using Ficoll-Paque density gradient centrifugation.
The colony-forming cell (CFC) assay was performed using optimal growth factor/cytokine concentrations. The reagents and conditions were similar to those used in Example 4, except that no ATP measurements were performed. The MNC fraction from each bone marrow donor was dissolved in IMDM and cultured at a concentration of 5,000 cells/well in a Culture Master Mix (HemoGenix, Inc., Colorado Springs, Colo.). […]
The mean, standard deviation and percent coefficient of variation was calculated for all groups, transposed and plotted as a function of donor. The percent from control values were calculated and also plotted as a function of donor. […]

[4] = tested on: BFU-E; experiment: Colony forming unit (CFU) assay, human bone marrow cells (Example 6); details: FIG. 1; control = zero level
Text: as §1, §2
(§3) Cells (1×10^5) were plated in duplicate onto 35 mm tissue culture plates for each condition tested and set up as described in Rameshwar et al. 1993, Blood. 81:2, 391-398. Erythroid and granulocyte/macrophage cultures were plated using methylcellulose and megakaryocyte cultures (platelet precursors) used a collagen-based support (StemCell Technologies, Vancouver, Canada, catalogue #04973). […] CP 99,994 (Pfizer) was used as a neurokinin-1 receptor antagonist and SR 48968 (Sanofi) was used as a neurokinin-2 receptor antagonist. […]

[5] = tested on: CFU-E; experiment: as above; details: FIG. 2; control = zero level
Text: as §1, §2, §3

## COc1ccccc1CN[C@H]1CCCN[C@H]1c1ccccc1 [CP-99,994]
[1]
  effect of receptor antagonist on substance P stimulation of platelet colony formation: blocks the stimulatory activity of substance P

## CC(C)C[C@H](NC(=O)CN(C)C(=O)[C@H](Cc1ccccc1)NC(=O)[C@H](Cc1ccccc1)NC(=O)[C@H](CCC(N)=O)NC(=O)[C@H](CCC(N)=O)NC(=O)[C@@H]1CCCN1C(=O)[C@H](CCCCN)NC(=O)[C@@H]1CCCN1C(=O)[C@@H](N)CCCNC(=N)N)C(=O)N[C@@H](CCS(C)(=O)=O)C(N)=O [HOMSPERA®]
[2]; B-CFC and T-CFC, levels tested
  toxicity: do not demonstrate toxicity at the levels tested
[2]; most of populations, 14 days, 1 nM to 1×10^−16 M
  cytotoxicity: apparent absence of distinct cytotoxicity
[3]
  toxicity: no apparent toxicity at the highest doses

## CC(=O)NC1(c2ccccc2)CCN(CC[C@H](CN(C)C(=O)c2ccccc2)c2ccc(Cl)c(Cl)c2)CC1 [SR48968]
[1]
  effect of receptor antagonist on substance P stimulation of platelet colony formation: showed no effect on substance P activity in enhancing platelet colony formation

## Arg Pro Lys Pro Gln Gln Phe Phe Gly Leu Met [substance P]
[4]
  BFU-E colony formation, increase from control values: ~60%
[5]
  CFU-E colony formation, enhancement from control values: about 70%

— patent publication US7776827B2 (ImmuneRegen Biosciences, Inc., priority 2007, dated 2010)
